Measured values reported in US20150231147A1, “METHODS FOR ACUTE AND LONG-TERM TREATMENT OF DRUG ADDICTION” (DemeRx, Inc., priority 2014, published 2015).
Where two headings read alike, the source gives them in different places.

How the values were obtained:
Type in all cases: in vivo, human
[1] = Plasma noribogaine pharmacokinetics, ascending single oral dose, healthy volunteers; conditions: for CL/F / AUC(0-inf) / Cmax / Tmax / Vd/F / AUC(0-t) / half-life: plasma; for AUC(0-inf) / Cmax / Tmax / Vd/F / AUC(0-t) / half-life: human; for AUC(0-t): read-out: AUC0-216
[2] = test system: opioid-dependent participants; assay: Opiate withdrawal scales COWS, SOWS, OOWS
Experimental: Patients were evaluated based on the Clinical Opiate Withdrawal Scale (COWS), Subjective Opiate Withdrawal Scale (SOWS), and Objective Opiate Withdrawal Scale (OOWS) scoring systems over the period of time between administration of noribogaine (or placebo) until resumption of OST. These scales are outlined in Guidelines for the Psychosocially Assisted Pharmacological Treatment of Opioid Dependence, World Health Organization, Geneva (2009), Annex 10, which is incorporated herein by reference in its entirety. The scales measure the intensity of withdrawal symptoms, based on clinical, subjective, and objective indicia.

[3] = test system: opioid-dependent participants; assay: QT interval prolongation in opioid-dependent patients; conditions: 60, 120, 180 mg, first 24 hours post administration; correlated with serum concentration
Experimental: Patients' QT intervals were evaluated at regular time points throughout the study.

[4] = test system: opioid-dependent participants; assay: Treatment emergent adverse events in opioid-dependent participants; conditions: opioid-dependent patients
Experimental: (§1) The efficacy of noribogaine in humans was evaluated in opioid-dependent participants in a randomized, placebo-controlled, double-blind trial. […] See U.S. application Ser. No. 14/214,157, filed Mar. 14, 2014 and Ser. No. 14/346,655, filed Mar. 21, 2014, which are incorporated herein by reference in their entireties.
(§2) Three cohorts of nine (9) subjects (6 administered noribogaine and 3 administered placebo in each cohort) were evaluated for tolerability, pharmacokinetics, and efficacy. Cohort 1 received a single dose of 60 mg noribogaine or placebo. Cohort 2 received a single dose of 120 mg noribogaine or placebo. Cohort 3 received a single dose of 180 mg noribogaine or placebo.

[5] = test system: opioid-dependent participants; assay: Time to resumption of morphine (opioid substitution treatment, OST)
Experimental: as §1, §2

[6] = test system: healthy, drug-free male volunteers; assay: Pupillary miosis assessed by pupillometry
Experimental: Pulse oximetry and capnography data were collected continuously using a GE Carescape B650 monitoring system from 2 hours prior to dosing and until six hours after dosing, and thereafter at 12, 24, 48 and 72 hours post-dosing. […] Pupillary miosis was assessed by pupillometry.

[7] = Serum noribogaine pharmacokinetics in patients, Phase IB study; conditions: for Vd/F / AUC(0-t) / Cmax / Tmax / AUC / half-life: human, serum, opioid-dependent patients, mean ± SD; for Vd/F: unit inferred; for AUC: read-out: AUC(0-¥)
Experimental: as §1, §2

[8] = healthy male volunteers, single oral 3 mg noribogaine, mean (n = 6)
[9] = healthy male volunteers, single oral 10 mg noribogaine, mean (n = 6)
[10] = healthy male volunteers, single oral 30 mg noribogaine, mean (n = 6)
[11] = healthy male volunteers, single oral 60 mg noribogaine, mean (n = 6)
[12] = healthy volunteers, 3-60 mg single oral doses

CC[C@H]1CC2C[C@H]3c4[nH]c5ccc(O)cc5c4CCN(C2)C13 [Noribogaine]
CL/F [1, 8]: 41.4 L/h
CL/F [1, 9]: 42.3 L/h
CL/F [1, 10]: 46.9 L/h
CL/F [1, 11]: 34.0 L/h
Volume of distribution across dose groups [1, 12]: 1417 to 3086 L
dose dependence of Cmax and AUC [1, 12]: increased linearly with dose
time of peak concentrations after oral dosing [1, 12]: 2 to 3 h
AUC(0-inf) [1, 8]: 74.2 ng·h/mL
Cmax [1, 8]: 5.2 ng/mL
Tmax [1, 8]: 1.9 h
Vd/F [1, 8]: 2490 L
AUC(0-t) [1, 8]: 72.2 ng·h/mL
half-life ([1]; healthy male volunteers, single oral 3 mg noribogaine, mean (n = 6), read-out: t1/2 (converted)): 40.9 h
AUC(0-inf) [1, 9]: 254 ng·h/mL
Cmax [1, 9]: 14.5 ng/mL
Tmax [1, 9]: 2.9 h
Vd/F [1, 9]: 3090 L
AUC(0-t) [1, 9]: 251 ng·h/mL
half-life ([1]; healthy male volunteers, single oral 10 mg noribogaine, mean (n = 6), read-out: t1/2 (converted)): 49.2 h
AUC(0-inf) [1, 10]: 700 ng·h/mL
Cmax [1, 10]: 55.9 ng/mL
Tmax [1, 10]: 1.8 h
Vd/F [1, 10]: 1850 L
AUC(0-t) [1, 10]: 678 ng·h/mL
half-life ([1]; healthy male volunteers, single oral 30 mg noribogaine, mean (n = 6), read-out: t1/2 (converted)): 27.6 h
AUC(0-inf) [1, 11]: 1960 ng·h/mL
Cmax [1, 11]: 116 ng/mL
Tmax [1, 11]: 2.4 h
Vd/F [1, 11]: 1420 L
AUC(0-t) [1, 11]: 1940 ng·h/mL
half-life ([1]; healthy male volunteers, single oral 60 mg noribogaine, mean (n = 6), read-out: t1/2 (converted)): 29.1 h
half-life ([1]; male, healthy volunteers, 3-60 mg single oral doses, read-out: Mean half-life estimates across dose groups): 28 to 50 h
withdrawal symptoms (COWS, OOWS, SOWS), first six hours following dosing ([2]; single 120 mg dose, compared with the other patients): generally experienced fewer withdrawal symptoms than the other patients
withdrawal symptoms (COWS, OOWS, SOWS), noribogaine compared with placebo ([2]; single 60, 120 or 180 mg dose, first six hours following dosing): Patients administered placebo generally experienced more withdrawal symptoms than patients who were administered noribogaine
QT interval prolongation (ΔQTcl) [3]: dose-dependent increase in QT interval prolongation
Treatment emergent AEs: Catheter Site Infection ([4]; single 60 mg dose (N = 6)): 0
Treatment emergent AEs: Catheter Site Pain ([4]; single 60 mg dose (N = 6)): 0
Treatment emergent AEs: Catheter Site Related Reaction ([4]; single 60 mg dose (N = 6)): 0
Treatment emergent AEs: Cellulitis ([4]; single 60 mg dose (N = 6)): 0
Treatment emergent AEs: Diarrhoea ([4]; single 60 mg dose (N = 6)): 0
Treatment emergent AEs: Dry Mouth ([4]; single 60 mg dose (N = 6)): 0
Treatment emergent AEs: Ear and Labyrinth Disorders ([4]; single 60 mg dose (N = 6)): 0
Treatment emergent AEs: Epistaxis ([4]; single 60 mg dose (N = 6)): 0
Treatment emergent AEs: Euphoric Mood ([4]; single 60 mg dose (N = 6)): 0
Treatment emergent AEs: General Disorders and Administration Site Conditions ([4]; single 60 mg dose (N = 6)): 0
Treatment emergent AEs: Hyperaesthesia ([4]; single 60 mg dose (N = 6)): 0
Treatment emergent AEs: Infections and Infestations ([4]; single 60 mg dose (N = 6)): 0
Treatment emergent AEs: Limb Discomfort ([4]; single 60 mg dose (N = 6)): 0
Treatment emergent AEs: Malaise ([4]; single 60 mg dose (N = 6)): 0
Treatment emergent AEs: Nausea ([4]; single 60 mg dose (N = 6)): 0
Treatment emergent AEs: Oropharyngeal Pain ([4]; single 60 mg dose (N = 6)): 0
Treatment emergent AEs: Pseudoparalysis ([4]; single 60 mg dose (N = 6)): 0
Treatment emergent AEs: Respiratory, Thoracic and Mediestinal Disorders ([4]; single 60 mg dose (N = 6)): 0
Treatment emergent AEs: Rhinorrhoea ([4]; single 60 mg dose (N = 6)): 0
Treatment emergent AEs: Skin Discomfort ([4]; single 60 mg dose (N = 6)): 0
Treatment emergent AEs: Skin Irritation ([4]; single 60 mg dose (N = 6)): 0
Treatment emergent AEs: Skin and Subcutaneous Tissue Disorders ([4]; single 60 mg dose (N = 6)): 0
Treatment emergent AEs: Somnolence ([4]; single 60 mg dose (N = 6)): 0
Treatment emergent AEs: Tinnitus ([4]; single 60 mg dose (N = 6)): 0
Treatment emergent AEs: Tremor ([4]; single 60 mg dose (N = 6)): 0
Treatment emergent AEs: Urinary Tract Infection ([4]; single 60 mg dose (N = 6)): 0
Treatment emergent AEs: Vomiting ([4]; single 60 mg dose (N = 6)): 0
Treatment emergent AEs: Back pain ([4]; single 120 mg dose (N = 6)): 0
Treatment emergent AEs: Catheter Site Infection ([4]; single 120 mg dose (N = 6)): 0
Treatment emergent AEs: Catheter Site Related Reaction ([4]; single 120 mg dose (N = 6)): 0
Treatment emergent AEs: Depressed Mood ([4]; single 120 mg dose (N = 6)): 0
Treatment emergent AEs: Dry Eye ([4]; single 120 mg dose (N = 6)): 0
Treatment emergent AEs: Dyspepsia ([4]; single 120 mg dose (N = 6)): 0
Treatment emergent AEs: Euphoric Mood ([4]; single 120 mg dose (N = 6)): 0
Treatment emergent AEs: Limb Discomfort ([4]; single 120 mg dose (N = 6)): 0
Treatment emergent AEs: Malaise ([4]; single 120 mg dose (N = 6)): 0
Treatment emergent AEs: Musculoskeletal and Connective Tissue Disorders ([4]; single 120 mg dose (N = 6)): 0
Treatment emergent AEs: Psychiatric Disorders ([4]; single 120 mg dose (N = 6)): 0
Treatment emergent AEs: Somnolence ([4]; single 120 mg dose (N = 6)): 0
Treatment emergent AEs: Urinary Tract Infection ([4]; single 120 mg dose (N = 6)): 0
Treatment emergent AEs: Catheter Site Infection ([4]; single 180 mg dose (N = 6)): 0
Treatment emergent AEs: Catheter Site Pain ([4]; single 180 mg dose (N = 6)): 0
Treatment emergent AEs: Depressed Mood ([4]; single 180 mg dose (N = 6)): 0
Treatment emergent AEs: Diarrhoea ([4]; single 180 mg dose (N = 6)): 0
Treatment emergent AEs: Dry Eye ([4]; single 180 mg dose (N = 6)): 0
Treatment emergent AEs: Dyspepsia ([4]; single 180 mg dose (N = 6)): 0
Treatment emergent AEs: Ear and Labyrinth Disorders ([4]; single 180 mg dose (N = 6)): 0
Treatment emergent AEs: Epistaxis ([4]; single 180 mg dose (N = 6)): 0
Treatment emergent AEs: Euphoric Mood ([4]; single 180 mg dose (N = 6)): 0
Treatment emergent AEs: Hyperaesthesia ([4]; single 180 mg dose (N = 6)): 0
Treatment emergent AEs: Malaise ([4]; single 180 mg dose (N = 6)): 0
Treatment emergent AEs: Oropharyngeal Pain ([4]; single 180 mg dose (N = 6)): 0
Treatment emergent AEs: Pseudoparalysis ([4]; single 180 mg dose (N = 6)): 0
Treatment emergent AEs: Psychiatric Disorders ([4]; single 180 mg dose (N = 6)): 0
Treatment emergent AEs: Respiratory, Thoracic and Mediestinal Disorders ([4]; single 180 mg dose (N = 6)): 0
Treatment emergent AEs: Rhinorrhoea ([4]; single 180 mg dose (N = 6)): 0
Treatment emergent AEs: Skin Discomfort ([4]; single 180 mg dose (N = 6)): 0
Treatment emergent AEs: Skin Irritation ([4]; single 180 mg dose (N = 6)): 0
Treatment emergent AEs: Skin and Subcutaneous Tissue Disorders ([4]; single 180 mg dose (N = 6)): 0
Treatment emergent AEs: Somnolence ([4]; single 180 mg dose (N = 6)): 0
Treatment emergent AEs: Tinnitus ([4]; single 180 mg dose (N = 6)): 0
Treatment emergent AEs: Tremor ([4]; single 180 mg dose (N = 6)): 0
adverse effects observed ([4]; single 60, 120 or 180 mg dose): Few adverse effects
hallucinatory effects ([4]; single 60, 120 or 180 mg dose): no hallucinatory effects
average time to resumption of opioids ([5]; single 120 mg dose, given 2 hours after last morphine dose): greater than 20 hours
Time to resumption of OST compared with untreated patients and 60 mg group ([5]; single 180 mg dose): still longer than untreated patients (7 hours, not shown) or those administered 60 mg noribogaine
pupil diameter, each dose group compared with placebo by ANOVA ([6]; after adjusting for baseline differences, p>0.9): no statistically significant differences
pupillary constriction [6, 12]: no evidence of pupillary constriction
dose dependence of maximum serum concentration (Cmax) ([7]; 60, 120, 180 mg cohorts): increased in a dose-dependent manner
Vd/F ([7]; Cohort 2 (120 mg)): 2110 ± 1640 L
Vd/F ([7]; Cohort 3 (180 mg)): 1030 ± 365 L
AUC(0-t) ([7]; Cohort 1 (60 mg)): 2020 ± 614 ng·h/mL
Cmax ([7]; Cohort 1 (60 mg)): 81.6 ± 23.8 ng/mL
Tmax ([7]; Cohort 1 (60 mg)): 3.59 ± 0.92 h
AUC ([7]; Cohort 1 (60 mg)): 2060 ± 609 ng·h/mL
AUC(0-t) ([7]; Cohort 2 (120 mg)): 3230 ± 1540 ng·h/mL
Cmax ([7]; Cohort 2 (120 mg)): 173 ± 30.7 ng/mL
Tmax ([7]; Cohort 2 (120 mg)): 2.99 ± 1.23 h
half-life ([7]; Cohort 2 (120 mg)): 30.4 ± 9.14 h
AUC ([7]; Cohort 2 (120 mg)): 3280 ± 1580 ng·h/mL
AUC(0-t) ([7]; Cohort 3 (180 mg)): 6520 ± 2910 ng·h/mL
Cmax ([7]; Cohort 3 (180 mg)): 268 ± 46.9 ng/mL
Tmax ([7]; Cohort 3 (180 mg)): 4.41 ± 1.8 h
half-life ([7]; Cohort 3 (180 mg)): 23.9 ± 5.54 h
AUC ([7]; Cohort 3 (180 mg)): 6890 ± 3490 ng·h/mL
